Reference: ChEMBL document CHEMBL1201862, “PubChem BioAssay data set” (2004)
Activity calls are given as the source filed them.

Experiments:
[1] = molecular target: T1, Small ubiquitin-related modifier 1 (Homo sapiens, UniProt P63165); assay: inhibitors of SUMO1 peptide binding, dose response, biochemical, fluorescence polarization, uHTS hits (AID 624382); assay type: functional; details: read-out: IC50_Mean
[2] = molecular target: T1, Small ubiquitin-related modifier 1; assay: inhibitors of SUMO1 partner interactions, dose response, biochemical, FRET (AID 624383); assay type: functional; details: read-out: IC50_Mean
[3] = molecular target: Dual specificity protein phosphatase 3 (Homo sapiens, UniProt P51452); assay: VHR phosphatase inhibition, dose response, selectivity assay for STEP inhibitor project, biochemical (AID 602374); assay type: functional; details: read-out: IC50_Mean
Sequence of Dual specificity protein phosphatase 3 (P51452 whole entry): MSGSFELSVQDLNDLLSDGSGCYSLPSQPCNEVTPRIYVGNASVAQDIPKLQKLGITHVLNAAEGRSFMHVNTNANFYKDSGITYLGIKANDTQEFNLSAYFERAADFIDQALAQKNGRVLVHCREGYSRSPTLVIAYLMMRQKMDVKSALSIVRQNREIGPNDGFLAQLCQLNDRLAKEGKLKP

[4] = molecular target: T2, Calpain-2 catalytic subunit (Sus scrofa, UniProt P43367); assay: pig calpain II inhibitor potency, dose response, biochemical, fluorogenic peptide substrate (AID 1420); assay type: functional
T2 sequence (P43367 whole entry): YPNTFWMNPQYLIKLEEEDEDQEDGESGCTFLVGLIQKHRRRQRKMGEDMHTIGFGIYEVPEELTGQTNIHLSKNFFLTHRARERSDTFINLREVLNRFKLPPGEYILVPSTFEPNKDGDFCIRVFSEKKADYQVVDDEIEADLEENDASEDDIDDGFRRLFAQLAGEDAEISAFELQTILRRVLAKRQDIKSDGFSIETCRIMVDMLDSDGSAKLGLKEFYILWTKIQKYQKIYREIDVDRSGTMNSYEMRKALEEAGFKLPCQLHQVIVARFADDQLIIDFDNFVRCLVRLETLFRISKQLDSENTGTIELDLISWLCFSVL

[5] = molecular target: Tyrosine-protein phosphatase non-receptor type 5 (Homo sapiens, UniProt P54829); assay: STEP phosphatase inhibitors, confirmation, biochemical, fluorescence intensity, uHTS hits (AID 602372); assay type: functional; details: read-out: IC50_Mean
Sequence of Tyrosine-protein phosphatase non-receptor type 5 (P54829 whole entry): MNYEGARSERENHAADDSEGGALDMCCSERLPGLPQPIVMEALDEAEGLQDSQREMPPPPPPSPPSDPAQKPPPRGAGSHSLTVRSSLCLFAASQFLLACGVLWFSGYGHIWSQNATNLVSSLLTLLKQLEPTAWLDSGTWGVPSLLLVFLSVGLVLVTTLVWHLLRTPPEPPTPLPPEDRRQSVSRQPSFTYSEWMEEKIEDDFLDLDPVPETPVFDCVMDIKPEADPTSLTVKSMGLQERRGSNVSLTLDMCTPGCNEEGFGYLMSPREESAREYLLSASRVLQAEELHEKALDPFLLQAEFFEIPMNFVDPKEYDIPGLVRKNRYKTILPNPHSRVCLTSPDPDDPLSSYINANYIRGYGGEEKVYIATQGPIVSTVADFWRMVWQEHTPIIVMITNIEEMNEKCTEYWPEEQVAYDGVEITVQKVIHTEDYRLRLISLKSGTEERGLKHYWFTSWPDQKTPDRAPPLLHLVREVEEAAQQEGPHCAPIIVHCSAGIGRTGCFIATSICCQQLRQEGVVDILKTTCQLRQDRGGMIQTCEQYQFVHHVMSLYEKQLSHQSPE

[6] = molecular target: Eukaryotic translation initiation factor 4E (Mus musculus, UniProt P63073); assay: eIF4E–eIF4G protein interaction inhibitors, dose response, biochemical, TR-FRET (AID 855); assay type: functional;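 further: potency for disrupting eIF4E binding to eIF4GI seen as loss of FRET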
Sequence of Eukaryotic translation initiation factor 4E (P63073 whole entry): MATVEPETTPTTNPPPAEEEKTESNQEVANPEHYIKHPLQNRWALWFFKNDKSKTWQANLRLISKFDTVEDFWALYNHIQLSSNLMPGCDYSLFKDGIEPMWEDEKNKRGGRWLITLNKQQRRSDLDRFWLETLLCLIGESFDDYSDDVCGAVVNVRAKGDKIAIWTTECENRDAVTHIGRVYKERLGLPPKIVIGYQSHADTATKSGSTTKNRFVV

[7] = molecular target: Tyrosine-protein phosphatase non-receptor type 11 (Homo sapiens, UniProt Q06124); assay: SHP2 phosphatase inhibition, dose response, selectivity assay for STEP inhibitor project, biochemical (AID 602367); assay type: functional; details: read-out: IC50_Mean
Sequence of Tyrosine-protein phosphatase non-receptor type 11 (Q06124 whole entry): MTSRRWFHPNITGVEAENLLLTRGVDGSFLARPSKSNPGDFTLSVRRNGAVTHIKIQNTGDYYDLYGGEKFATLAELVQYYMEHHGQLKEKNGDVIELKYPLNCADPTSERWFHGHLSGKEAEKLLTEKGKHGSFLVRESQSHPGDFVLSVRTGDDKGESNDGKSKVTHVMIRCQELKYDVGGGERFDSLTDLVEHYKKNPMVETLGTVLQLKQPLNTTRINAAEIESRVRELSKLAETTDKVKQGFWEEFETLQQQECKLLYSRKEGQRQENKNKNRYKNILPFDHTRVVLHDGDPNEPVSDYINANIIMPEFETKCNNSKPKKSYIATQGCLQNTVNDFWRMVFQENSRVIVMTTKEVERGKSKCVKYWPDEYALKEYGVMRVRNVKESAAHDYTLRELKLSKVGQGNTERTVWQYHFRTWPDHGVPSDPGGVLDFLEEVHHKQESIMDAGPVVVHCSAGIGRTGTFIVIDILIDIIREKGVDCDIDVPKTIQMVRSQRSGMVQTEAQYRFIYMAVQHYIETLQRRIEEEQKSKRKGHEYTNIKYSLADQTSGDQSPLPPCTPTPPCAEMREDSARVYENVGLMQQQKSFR

[8] = molecular target: T3, Probable nicotinate-nucleotide adenylyltransferase (Staphylococcus aureus (strain N315), UniProt P65502); assay type: functional, Staphylococcus aureus subsp. aureus N315;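 on IC50 Mean: confirmatory dose-response retesting of NadD inhibitor hits first found in an ultra-high-throughput screen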
T3 sequence (P65502 whole entry): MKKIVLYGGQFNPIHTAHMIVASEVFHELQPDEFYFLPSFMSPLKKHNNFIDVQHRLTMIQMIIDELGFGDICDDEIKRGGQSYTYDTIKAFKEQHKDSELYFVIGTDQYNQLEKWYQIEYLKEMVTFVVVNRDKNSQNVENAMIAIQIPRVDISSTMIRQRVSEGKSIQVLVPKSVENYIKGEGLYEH

[9] = molecular target: T3, Probable nicotinate-nucleotide adenylyltransferase; assay type: functional, Staphylococcus aureus subsp. aureus N315; details: read-out: IC50_Mean
Steroidogenic factor 1 = Steroidogenic factor 1 (Homo sapiens, UniProt Q13285); assay: Counterscreen for inverse agonists of the liver receptor homolog-1 (LRH-1; NR5A2): Luminescence-based cell-based high throughput dose response assay to identify inverse agonists of the Steroidogenic Factor 1 Nuclear Receptor (SF1; NR5A1).; assay type: functional
Sequence of Steroidogenic factor 1 (Q13285 whole entry): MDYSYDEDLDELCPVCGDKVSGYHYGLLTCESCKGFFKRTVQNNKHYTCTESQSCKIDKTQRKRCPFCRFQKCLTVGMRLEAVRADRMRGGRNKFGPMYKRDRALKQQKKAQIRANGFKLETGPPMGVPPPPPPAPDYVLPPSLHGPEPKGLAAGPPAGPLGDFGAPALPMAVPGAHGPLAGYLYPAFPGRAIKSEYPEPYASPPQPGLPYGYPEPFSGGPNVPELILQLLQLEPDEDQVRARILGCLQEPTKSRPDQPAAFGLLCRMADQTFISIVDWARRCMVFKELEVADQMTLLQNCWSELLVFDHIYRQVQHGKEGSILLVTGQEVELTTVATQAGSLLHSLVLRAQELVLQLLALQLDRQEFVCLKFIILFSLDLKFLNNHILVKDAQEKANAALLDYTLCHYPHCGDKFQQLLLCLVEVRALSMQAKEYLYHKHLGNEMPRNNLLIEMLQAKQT

[10] = molecular target: Nuclear receptor subfamily 5 group A member 2 (Homo sapiens, UniProt O00482); assay type: functional, cell-based;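 further: HEK293T cells transfected with LRH-1 and a StAR promoter luciferase reporter; potency for inhibitors that lower LRH-1 driven reporter light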
Sequence of Nuclear receptor subfamily 5 group A member 2 (O00482 whole entry): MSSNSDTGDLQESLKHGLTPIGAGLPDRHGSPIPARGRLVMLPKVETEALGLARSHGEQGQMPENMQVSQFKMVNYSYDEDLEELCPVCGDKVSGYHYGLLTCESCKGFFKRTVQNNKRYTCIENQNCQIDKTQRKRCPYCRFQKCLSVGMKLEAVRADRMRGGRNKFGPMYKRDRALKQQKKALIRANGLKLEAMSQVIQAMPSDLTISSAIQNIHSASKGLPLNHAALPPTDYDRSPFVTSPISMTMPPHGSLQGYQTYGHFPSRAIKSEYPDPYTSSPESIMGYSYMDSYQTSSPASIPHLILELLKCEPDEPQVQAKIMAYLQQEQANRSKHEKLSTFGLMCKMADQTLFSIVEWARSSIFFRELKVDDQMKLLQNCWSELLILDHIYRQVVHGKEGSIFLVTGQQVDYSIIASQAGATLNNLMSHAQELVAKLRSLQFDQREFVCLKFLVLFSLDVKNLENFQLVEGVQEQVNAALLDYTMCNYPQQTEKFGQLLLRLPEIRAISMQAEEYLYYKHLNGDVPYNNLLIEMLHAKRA

[11] = StAR promoter reporter inhibition counter-screen, dose response, counter-screen for LRH-1 inverse agonist project, cell-based, luminescence, luciferase reporter (AID 651969); assay type: functional
Streptokinase A = molecular target: T4, Streptokinase A (Streptococcus pyogenes serotype M1, UniProt P10520); assay: S. pyogenes streptokinase expression inhibitors, potency, dose response, plasminogen activation absorbance, OD405 (AID 1914); assay type: functional, Streptococcus pyogenes M1 GAS;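 further: secreted streptokinase activity via plasminogen activation per viability signal from cell pellet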
T4 sequence (P10520 whole entry): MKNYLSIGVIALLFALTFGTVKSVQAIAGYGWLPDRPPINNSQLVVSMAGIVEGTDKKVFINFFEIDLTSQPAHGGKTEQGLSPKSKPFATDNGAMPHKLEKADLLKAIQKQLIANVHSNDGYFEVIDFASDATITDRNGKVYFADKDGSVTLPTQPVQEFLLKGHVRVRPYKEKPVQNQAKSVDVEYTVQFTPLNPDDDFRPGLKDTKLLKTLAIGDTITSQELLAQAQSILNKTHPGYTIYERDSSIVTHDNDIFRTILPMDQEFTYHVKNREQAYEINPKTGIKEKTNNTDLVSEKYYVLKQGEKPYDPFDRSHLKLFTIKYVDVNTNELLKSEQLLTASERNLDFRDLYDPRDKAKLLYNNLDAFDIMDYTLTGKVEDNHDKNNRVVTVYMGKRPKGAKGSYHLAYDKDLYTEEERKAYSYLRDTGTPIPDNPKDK

Streptococcus = assay: Group A Streptococcus viability loss, dose response, counter-screen for streptokinase expression inhibitor project, luminescence, BacTiterGlo (AID 1915); assay type: functional, organism-based;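 further: potency for reduction of bacterial viability or growth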
Protein RecA = molecular target: T5, Protein RecA (Mycobacterium tuberculosis, UniProt P9WHJ3); assay: Fluorescence Cell-Free Homogeneous Dose Retest to Identify Inhibitors of RecA-Intein Splicing Activity. [Related pubchem assays (depositor defined):AID2097, AID2223, AID489010, AID492950]; assay type: functional
T5 sequence (P9WHJ3 whole entry): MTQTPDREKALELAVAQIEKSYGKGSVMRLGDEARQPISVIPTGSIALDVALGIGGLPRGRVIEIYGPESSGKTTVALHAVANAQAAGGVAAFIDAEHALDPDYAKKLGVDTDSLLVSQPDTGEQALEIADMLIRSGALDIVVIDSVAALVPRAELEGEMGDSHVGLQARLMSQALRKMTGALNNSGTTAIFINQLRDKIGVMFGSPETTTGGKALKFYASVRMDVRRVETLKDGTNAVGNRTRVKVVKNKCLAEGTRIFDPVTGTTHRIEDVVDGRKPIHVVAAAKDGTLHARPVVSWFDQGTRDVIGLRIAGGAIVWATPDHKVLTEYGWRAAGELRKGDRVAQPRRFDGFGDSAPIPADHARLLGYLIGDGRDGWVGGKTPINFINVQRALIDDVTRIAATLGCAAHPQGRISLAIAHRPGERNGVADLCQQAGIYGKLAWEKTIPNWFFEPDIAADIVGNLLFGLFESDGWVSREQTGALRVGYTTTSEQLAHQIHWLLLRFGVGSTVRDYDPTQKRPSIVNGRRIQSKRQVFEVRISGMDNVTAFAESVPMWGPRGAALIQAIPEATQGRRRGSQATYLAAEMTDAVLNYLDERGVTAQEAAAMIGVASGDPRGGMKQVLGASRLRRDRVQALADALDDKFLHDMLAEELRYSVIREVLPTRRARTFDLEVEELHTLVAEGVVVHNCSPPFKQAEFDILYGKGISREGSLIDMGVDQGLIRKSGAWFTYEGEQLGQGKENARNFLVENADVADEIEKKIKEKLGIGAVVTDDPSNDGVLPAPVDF

[12] = molecular target: 26S proteasome non-ATPase regulatory subunit 14 (Homo sapiens, UniProt O00487); assay: inhibition of proteasome subunit RPN11 – biochemical, fluorescence polarization, uHTS hits, confirmation (AID 602368); assay type: functional
Sequence of 26S proteasome non-ATPase regulatory subunit 14 (O00487 whole entry): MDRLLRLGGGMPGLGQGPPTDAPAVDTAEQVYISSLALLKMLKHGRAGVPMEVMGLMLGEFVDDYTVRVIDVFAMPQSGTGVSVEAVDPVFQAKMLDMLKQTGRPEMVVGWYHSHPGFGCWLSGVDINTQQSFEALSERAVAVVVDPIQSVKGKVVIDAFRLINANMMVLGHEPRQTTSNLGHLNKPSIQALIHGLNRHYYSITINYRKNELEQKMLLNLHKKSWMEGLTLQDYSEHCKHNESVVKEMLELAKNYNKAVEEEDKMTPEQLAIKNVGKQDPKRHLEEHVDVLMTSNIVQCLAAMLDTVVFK

[13] = tested on: Streptococcus sp. 'group A'; assay: growth inhibition of control SK(-) GAS strain, dose response, counter-screen for streptokinase expression inhibitor project, luminescence, kanamycin, BacTiterGlo, confirmation (AID 1900); assay type: functional, organism-based
[14] = molecular target: T6, RNA-binding protein pos-1 (Caenorhabditis elegans, UniProt G5EF15); assay: inhibitors of POS-1/mex-3 RNA binding, dose response, biochemical, fluorescence polarization (AID 1964);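 further: purified POS-1 fused to maltose binding protein made in E. coli; potency of compounds blocking POS-1 binding to fluorescent RNA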
T6 sequence (G5EF15 whole entry): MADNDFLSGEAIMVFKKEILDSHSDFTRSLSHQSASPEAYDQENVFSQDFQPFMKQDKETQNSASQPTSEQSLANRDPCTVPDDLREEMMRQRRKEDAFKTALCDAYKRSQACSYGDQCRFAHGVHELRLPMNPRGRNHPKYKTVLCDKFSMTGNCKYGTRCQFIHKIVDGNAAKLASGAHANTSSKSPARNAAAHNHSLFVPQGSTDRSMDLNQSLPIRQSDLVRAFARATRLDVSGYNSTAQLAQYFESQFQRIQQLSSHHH

[15] = molecular target: T7, Replicative DNA helicase DnaB (Mycobacterium tuberculosis, UniProt P9WMR3); assay: DnaB intein splicing inhibitors, dose response, biochemical, cell-free fluorescence (AID 449749); assay type: functional
T7 sequence (P9WMR3 whole entry): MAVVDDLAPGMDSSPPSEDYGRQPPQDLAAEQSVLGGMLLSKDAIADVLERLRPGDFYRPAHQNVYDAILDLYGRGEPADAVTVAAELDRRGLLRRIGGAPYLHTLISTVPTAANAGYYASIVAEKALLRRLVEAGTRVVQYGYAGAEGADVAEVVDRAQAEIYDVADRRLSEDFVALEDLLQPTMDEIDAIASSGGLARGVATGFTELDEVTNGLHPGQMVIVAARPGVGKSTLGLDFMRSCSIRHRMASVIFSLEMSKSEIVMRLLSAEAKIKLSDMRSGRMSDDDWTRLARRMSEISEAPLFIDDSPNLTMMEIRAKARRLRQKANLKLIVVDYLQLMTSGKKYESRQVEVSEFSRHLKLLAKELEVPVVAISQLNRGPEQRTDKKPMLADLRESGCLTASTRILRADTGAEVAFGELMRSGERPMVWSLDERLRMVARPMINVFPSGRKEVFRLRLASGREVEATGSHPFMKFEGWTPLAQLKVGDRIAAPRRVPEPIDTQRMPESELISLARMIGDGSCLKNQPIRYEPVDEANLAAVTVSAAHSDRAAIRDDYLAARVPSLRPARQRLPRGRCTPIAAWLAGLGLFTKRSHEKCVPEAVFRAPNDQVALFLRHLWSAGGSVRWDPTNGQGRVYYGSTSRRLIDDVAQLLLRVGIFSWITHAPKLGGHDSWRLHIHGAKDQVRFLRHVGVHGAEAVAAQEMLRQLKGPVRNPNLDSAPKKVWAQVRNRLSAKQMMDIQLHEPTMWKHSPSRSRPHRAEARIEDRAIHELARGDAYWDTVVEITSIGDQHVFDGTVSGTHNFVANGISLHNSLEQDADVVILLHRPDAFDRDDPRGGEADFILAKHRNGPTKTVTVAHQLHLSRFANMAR

[16] = molecular target: T8, Zinc finger protein mex-5 (Caenorhabditis elegans, UniProt Q9XUB2); assay: MEX-5/TCR-2 RNA interaction inhibitors, dose response, biochemical, C. elegans, fluorescence polarization (AID 1960)
T8 sequence (Q9XUB2 whole entry): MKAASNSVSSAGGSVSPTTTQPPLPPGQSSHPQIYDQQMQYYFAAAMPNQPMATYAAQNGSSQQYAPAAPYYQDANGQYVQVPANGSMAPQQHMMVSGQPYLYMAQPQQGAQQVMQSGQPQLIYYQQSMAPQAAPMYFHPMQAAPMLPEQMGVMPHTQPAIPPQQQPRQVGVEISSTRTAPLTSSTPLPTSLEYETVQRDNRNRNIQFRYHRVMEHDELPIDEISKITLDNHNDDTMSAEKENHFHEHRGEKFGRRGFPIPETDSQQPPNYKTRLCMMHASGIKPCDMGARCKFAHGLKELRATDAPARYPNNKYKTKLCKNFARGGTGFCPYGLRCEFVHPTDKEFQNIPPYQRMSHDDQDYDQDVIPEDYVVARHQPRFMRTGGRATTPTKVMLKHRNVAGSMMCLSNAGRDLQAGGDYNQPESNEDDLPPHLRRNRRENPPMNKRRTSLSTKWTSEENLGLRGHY

Prothrombin = Prothrombin (Bos taurus, UniProt P00735); assay: thrombin inhibition, dose response, biochemical, fluorescence polarization, uHTS hits (AID 602369); assay type: functional
[17] = molecular target: 72 kDa type IV collagenase (Homo sapiens, UniProt P08253); assay: Dose Response validation of uHTS RPN11 inhibitor hits using a MMP-2 Fluorescence assay.; assay type: functional
Sequence of 72 kDa type IV collagenase (P08253 whole entry): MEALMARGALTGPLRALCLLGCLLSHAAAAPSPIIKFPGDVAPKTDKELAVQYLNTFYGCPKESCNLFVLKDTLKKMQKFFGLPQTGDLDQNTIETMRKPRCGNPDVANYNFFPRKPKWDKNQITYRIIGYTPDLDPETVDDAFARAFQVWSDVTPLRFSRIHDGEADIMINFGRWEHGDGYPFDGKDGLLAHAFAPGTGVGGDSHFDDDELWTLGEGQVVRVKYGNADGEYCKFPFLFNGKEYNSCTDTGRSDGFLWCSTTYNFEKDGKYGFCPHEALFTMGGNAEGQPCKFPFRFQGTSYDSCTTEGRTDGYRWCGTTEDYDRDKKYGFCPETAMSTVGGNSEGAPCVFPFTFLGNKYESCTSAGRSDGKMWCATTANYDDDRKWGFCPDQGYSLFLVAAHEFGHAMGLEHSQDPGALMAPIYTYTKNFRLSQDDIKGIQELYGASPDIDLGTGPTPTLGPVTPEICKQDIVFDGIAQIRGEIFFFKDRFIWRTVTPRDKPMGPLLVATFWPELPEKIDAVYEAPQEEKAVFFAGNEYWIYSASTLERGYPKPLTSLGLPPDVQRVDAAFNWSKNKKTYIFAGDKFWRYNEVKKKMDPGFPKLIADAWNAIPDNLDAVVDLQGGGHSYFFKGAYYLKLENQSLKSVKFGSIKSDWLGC

[18] = molecular target: Adenosylmethionine-8-amino-7-oxononanoate aminotransferase (Mycobacterium tuberculosis, UniProt P9WQ81); assay: Mycobacterium tuberculosis BioA enzyme inhibitor Measured in Biochemical System Using Plate Reader - 2163-02_Inhibitor_Dose_CherryPick_Activity.; assay type: functional, Mycobacterium tuberculosis UT205
Sequence of Adenosylmethionine-8-amino-7-oxononanoate aminotransferase (P9WQ81 whole entry): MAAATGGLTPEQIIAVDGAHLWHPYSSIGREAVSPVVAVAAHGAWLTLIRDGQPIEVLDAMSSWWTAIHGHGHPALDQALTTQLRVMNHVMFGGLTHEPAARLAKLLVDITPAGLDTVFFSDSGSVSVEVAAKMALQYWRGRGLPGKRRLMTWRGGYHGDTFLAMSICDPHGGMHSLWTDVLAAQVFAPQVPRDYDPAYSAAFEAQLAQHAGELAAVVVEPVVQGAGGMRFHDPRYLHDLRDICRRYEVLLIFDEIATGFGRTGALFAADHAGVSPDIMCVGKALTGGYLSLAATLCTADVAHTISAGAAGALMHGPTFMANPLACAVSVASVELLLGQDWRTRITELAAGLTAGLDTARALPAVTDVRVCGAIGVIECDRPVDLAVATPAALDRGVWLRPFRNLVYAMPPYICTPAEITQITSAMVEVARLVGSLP

T1 sequence (P63165 whole entry): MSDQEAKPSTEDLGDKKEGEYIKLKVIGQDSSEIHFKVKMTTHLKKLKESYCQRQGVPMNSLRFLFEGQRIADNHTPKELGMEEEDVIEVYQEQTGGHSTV

O=C(CSc1nc(-c2ccc(F)cc2)nc2c1Cc1ccccc1O2)Nc1cccc(C(=O)O)c1
IC50 [1]: > 66.6 µM (inactive) | IC50 [2]: 4.27 µM (active) | IC50 [3]: 0.353 µM (active) | IC50 [4]: > 50 µM (not active) | IC50 [5]: 2.26 µM (active) | IC50 [6]: 50 µM (inactive) | IC50 [7]: 0.443 µM (active)

Cc1cccc(C)c1Nc1nnc(SC/C(O)=C(\C#N)c2nc3ccccc3[nH]2)s1
IC50 [8]: 9.49 µM (active) | IC50 [9]: 25.2 µM (active)

Cc1ccc(C)c(N2CCN(S(=O)(=O)c3ccc4nc(O)c(O)nc4c3)CC2)c1
IC50 [8]: 5.39 µM (active) | IC50 [9]: 25.9 µM (active)

COc1ccccc1NC(=O)CN1CCN(CC(=O)Nc2ccc(S(N)(=O)=O)cc2)CC1
IC50 (Steroidogenic factor 1): 6.64 µM (active) | IC50 [10]: 25.9 µM (inactive) | IC50 [11]: 35.9 µM (inactive)

O=C(N/N=C/c1cc(Cl)cc([N+](=O)[O-])c1O)c1ccccc1NS(=O)(=O)c1cccs1
EC50 (Streptokinase A): > 150 µM (not active) | EC50 (Streptococcus): 18.9 µM (active) | EC50 (Protein RecA): 67.2 µM (active) | IC50 [12]: 10.4 µM (active) | EC50 [13]: 4.31 µM (active) | EC50 [14]: 282 µM (active) | AC50 [15]: 15.9 µM (active) | EC50 [16]: 1.56 µM (inconclusive) | IC50 (Prothrombin): 85.5 µM (active) | IC50 [17]: > 100 µM (inactive)

CC(=O)c1ccc(NC(=O)C(C)ONC(=N)c2ccccc2)cc1 (configuration not stated)
IC50 (Steroidogenic factor 1): 6.11 µM (active) | IC50 [10]: 23.8 µM (inactive) | IC50 [11]: 35.9 µM (inactive)

O=C(Nc1cccc(F)c1)C1CCCN(c2cnccn2)C1 (configuration not stated)
AC50 [18]: 5.41 µM (active)

O=C(C[C@@H]1C[C@H]2c3cc(NC(=O)c4cccnc4)ccc3O[C@H]2[C@@H](CO)O1)NCc1cc(F)ccc1F
AC50 [18]: 12.6 µM (active)

O=C(O)CCCCN1C(=O)/C(=C\c2ccc(OCc3ccccc3)c(OCc3ccccc3)c2)SC1=S
IC50 [12]: 45.4 µM (active) | IC50 (Prothrombin): 29.3 µM (active) | IC50 [17]: > 100 µM (inactive)
